Assay results: patent US5360790A, “Method and formulations for the therapy of acute renal failure” (The Regents of the University of Michigan, priority 1993, dated 1994)

Assays:
Type in all cases: in vivo, rat
renal tubule cells [1] = assay: [3H] thymidine incorporation into renal cortex after HgCl2 (nephrotoxic acute renal failure); conditions: for [3H] Thymidine Incorporation: EGF 20 μg sc 2-4 h after nephrotoxin
Protocol: (§1) At time intervals of 24, 30, 48, and 72 hours after toxin administration, [^3 H] thymidine incorporation into renal cortex, as well as blood urea nitrogen (BUN) and serum creatinine levels, were determined with methods known and practiced in the art. To obtain a complete time course for the BUN and serum creatinine levels, some animals were allowed to recover for as long as 12 days after HgCl2 administration, and blood samples were obtained daily for BUN and serum creatinine levels.

renal tubule cells [2] = assay: Histoautoradiography of [3H] thymidine labeled kidney cells after HgCl2
Protocol: as §1
Histoautoradiographic studies were performed to determine the type of cells labeled with [^3 H] thymidine after HgCl2 exposure. Kidney sections from rats at 48 or 72 h after toxic administration were used for histoautoradiographic analysis. Labeling was confined to the nuclei. On average, 97.9% of the labeled cells were tubule cells, and 2.1% of the labeled cells were interstitial cells in the 60 examined fields. In control rats undergoing sham injection, 98.4% of labeled cells were tubule, and 1.6% were interstitial in 90 examined fields.

Male Sprague-Dawley rats [3] = assay: BUN and serum creatinine time course after HgCl2 (nephrotoxic acute renal failure)
Protocol: as §1

Male Sprague-Dawley rats [4] = assay: Histological score of tubule cell injury after HgCl2; conditions: 24 h after HgCl2; n=120 fields from 3 animals; P=NS vs non-EGF-treated
Protocol: Histological grading was assessed at 24 h, a time at which the peak of HgCl2 -induced toxic renal injury occurs and just before the accelerated regeneration repair phase. At 24 h, the mean histological scores in the inner cortex and outer stripe were 2.92±0.13 and 4.70±0.07, respectively, in the nephrotoxic non-EGF-treated rats vs. scores of 3.25±0.18 and 4.65±0.08, respectively, in the nephrotoxic EGF-treated rats (n=120 fields from 3 animals in each treatment group, P=NS for both scores). At 24 h after HgCl2, extensive necrosis was present in proximal tubule segments with no difference in the degree of tubule cell necrosis observed histologically between the EGF-treated and nontreated groups receiving HgCl2.

renal tubule cells [5] = assay: 3H-thymidine incorporation into kidneys after bilateral renal artery clamping (ischemic acute renal failure)
Protocol: (§2) Sprague Dawley rats (250-325 g) were anesthetized with a short-acting barbiturate, the abdominal cavity was exposed, and both left and right renal arteries were identified and clamped for 30 minutes. The clamps were released and perfusion to the kidneys reestablished. At time intervals of 24, 48, and 72 hours after ischemia and reperfusion, ^3 H-thymidine incorporation into kidneys, as well as blood urea nitrogen (BUN) and serum creatinine levels. To obtain a complete time course, some animals were allowed to recover for 7 days after renal ischemia and blood samples were then obtained daily for BUN or serum creatinine measurements.
(§3) This dose of EGF is substantially lower than those employed in previously reported studies that administered EGF systemically. At varying time points after reperfusion, measurements of ^3 H-thymidine incorporation into the kidneys and BUN, and serum creatinine levels were determined.

renal tubule cells [6] = assay: Histoautoradiography of 3H-thymidine labeled kidney cells after renal ischemia
Excerpt: To localize and identify the cells incorporating the radiolabeled thymidine within the kidney, histoautoradiography of kidney samples was also accomplished. For quantitative evaluation, a computerized operator-interactive system was used. Sections were examined at 276 magnification, and 10-15 fields were counted in the cortex and outer and inner stripes of the outer medulla in each section for an individual animal. The cell type of the labeled cells was identified as either tubular or interstitial.
At varying time points after reperfusion, measurements of ^3 H-thymidine incorporation into the kidneys and BUN, and serum creatinine levels were determined.

Sprague Dawley rats = assay: BUN and serum creatinine time course after renal ischemia; conditions: single dose EGF within 1-1.5 hours of reperfusion after 30 minutes bilateral renal ischemia; entire 7-day period
Protocol: as §2, §3

[7] = EGF-treated rats, 48 h after HgCl2 injection, 60 fields
[8] = peak at 3 days after HgCl2 injection, EGF 20 μg sc, P<0.001 vs nontreated
[9] = EGF-treated postischemic rats at 24 hours
[10] = postischemic kidneys at 24 hours after EGF administration

Substance: epidermal growth factor [EGF]
- [3H] Thymidine Incorporation (renal tubule cells [1]; 0 h, rats given 5 mg/kg HgCl2, mean (SE 0.03 printed)): 0.12 dpm × 10^4 /mg DNA
- [3H] Thymidine Incorporation (renal tubule cells [1]; 24 h after 5 mg/kg HgCl2, mean (SE 1.28 printed)): 13.81 dpm × 10^4 /mg DNA
- [3H] Thymidine Incorporation (renal tubule cells [1]; 48 h after 5 mg/kg HgCl2, mean (SE 19.52 printed)): 80.52 dpm × 10^4 /mg DNA
- [3H] Thymidine Incorporation (renal tubule cells [1]; 72 h after 5 mg/kg HgCl2, mean (SE 13.80 printed)): 116.24 dpm × 10^4 /mg DNA
- renal thymidine incorporation compared with non-EGF-treated animals receiving the nephrotoxin (renal tubule cells [1]; single dose EGF 2 or 4 h after HgCl2, at 24, 30, 48 and 72 h): higher rates of renal thymidine incorporation
- number of tubule cells incorporating [3H] thymidine (renal tubule cells [2]; 24 h after HgCl2, renal cortex and outer medulla, n=3 rats and 60 fields, P<0.02 vs nontreated): 7.5±1.8 labeled cells/field
- number of labeled tubule cells (renal tubule cells [2]; 48 h after HgCl2, renal cortex and outer medulla, n=3 rats and 60 fields): 20.9±2.1 cells/field
- labeled cells identified as interstitial cells (renal tubule cells [2]; [7]): 3.7%
- labeled cells identified as tubule (renal tubule cells [2]; [7]): 96.3%
- return to near normal BUN and serum creatinine, earlier than in non-EGF-treated animals (Male Sprague-Dawley rats [3]; after HgCl2): 4 days
- return to near normal BUN and serum creatinine levels (Male Sprague-Dawley rats [3]; day after HgCl2 administration): 8 days
- peak BUN level (Male Sprague-Dawley rats [3]; [8]): 213 ± 23 mg/dL
- peak serum creatinine level (Male Sprague-Dawley rats [3]; [8]): 6.54 ± 0.72 mg/dL
- mean histological score, inner cortex (Male Sprague-Dawley rats [4]): 3.25±0.18
- mean histological score, outer stripe (Male Sprague-Dawley rats [4]): 4.65±0.08
- 3H-thymidine incorporation, sham ischemia (renal tubule cells [5]; EGF treatment of rats undergoing sham ischemia, P=NS, n=3): did not show any increase
- renal thymidine incorporation compared with control nontreated ischemia values (renal tubule cells [5]; single dose EGF 1-1.5 hours after reperfusion, 24, 48, 72 hours of reperfusion after 30 minutes bilateral renal artery clamping): significantly increased renal thymidine incorporation
- labeled cells identified as interstitial cells (renal tubule cells [6]; [9]): 1.9%
- labeled cells identified as tubule (renal tubule cells [6]; [9]): 98.1%
- labeled interstitial cells, absolute number (renal tubule cells [6]; [9]): 61
- labeled tubule cells, absolute number (renal tubule cells [6]; [9]): 3,183
- distribution of labeled tubule cells: cortex (renal tubule cells [6]; [10]): 27%
- distribution of labeled tubule cells: outer stripe of the outer medulla (renal tubule cells [6]; [10]): 68%
- BUN levels of EGF-treated animals (Sprague Dawley rats): significantly lower
- creatinine levels of EGF-treated animals (Sprague Dawley rats): significantly lower
